From PMC3575409, “Identification of a Novel Protein-Protein Interaction Motif Mediating Interaction of GPCR-Associated Sorting Proteins with G Protein-Coupled Receptors” (PLoS ONE, 2013) come the findings set out here.

For experiment [1], the system named is interaction between GASP-2 and GST-fused ADRB1 C-tail. The experiment can be described thus: GST-pull down competition, GASP-2 / ADRB1 C-tail. It counts as binding. As to the method:
(§1) GST-fusion proteins were immobilized on glutathione-coupled Sepharose beads (GE Healthcare) for 1 h at 4°C and incubated with [^35S]-labelled in vitro translated GASP proteins or their truncated or mutated forms in ice-cold binding buffer containing: 20 mM Tris-HCl pH 7.4, 150 mM NaCl, 1 mM EDTA, 1 mM DTT, 10% glycerol and 1% Triton X-100. The mixture was incubated for 1 h at 4°C with gentle rocking. The beads were washed five times with the same ice-cold buffer, resuspended in 30 µl SDS-PAGE sample buffer, incubated 10 min at 65°C, and pelleted for 60 s at 3000 g. The supernatants were then analyzed by SDS-PAGE, the gels were stained with Coomassie blue to visualize GST-fusion proteins, dried and analyzed using a Phosphor-imager (Personal Molecular Imager FX, Biorad) to visualize [^35S]-labelled GASPs. Quantification was performed with the Quantity One software (Biorad). GST-pull down quantification data were analyzed using GraphPad Prism 4.03 (GraphPad Software). Quantifications presented are means of at least three independent experiments.
(§2) GASP peptide or its corresponding scrambled version was incubated with GST-fused proteins and [^35S]-labelled GASPs and the binding was analyzed as described for the GST-pull down assay. […]

Experiment [2] has as its system interaction between GASP-7 and GST-fused ADRB1 C-tail. The experiment can be described thus: GST-pull down competition, GASP-7 / ADRB1 C-tail. Type of experiment: binding. The conditions noted are these: 150 µM peptide. The protocol:
as §1, §2

In experiment [3] the test system is interaction between GASP-1 and GST-fused ADRB1 C-tail. The experiment in a line: GST-pull down competition, GASP-1 / ADRB1 C-tail. It counts as binding. The conditions noted are these: 150 µM peptide. As to the method:
as §1, §2

In experiment [4] the target is T1, binding of full-length CNR2 to the central domain of GASP-1 (Homo sapiens, UniProt P34972).
T1 construct: Both ADRB2 and CNR2 full-length receptors were produced in P. pastoris and purified as previously described; implied only by the HisTrap purification; made in house; host or cells: CNR2: Pichia pastoris; GST-GASP-1(380-1073): E. coli BL21
T1 sequence (P34972 whole entry, the tested form may be a part): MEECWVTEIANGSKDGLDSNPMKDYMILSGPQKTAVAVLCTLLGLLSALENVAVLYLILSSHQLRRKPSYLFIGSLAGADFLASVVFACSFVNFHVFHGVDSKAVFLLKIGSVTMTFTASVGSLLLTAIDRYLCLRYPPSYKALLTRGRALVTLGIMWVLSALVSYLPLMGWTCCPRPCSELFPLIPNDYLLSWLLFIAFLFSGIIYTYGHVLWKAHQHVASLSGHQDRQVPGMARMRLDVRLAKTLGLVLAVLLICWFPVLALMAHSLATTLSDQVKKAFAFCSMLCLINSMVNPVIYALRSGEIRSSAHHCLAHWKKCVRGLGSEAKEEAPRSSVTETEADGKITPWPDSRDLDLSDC
The experiment in a line: SPR competition, CNR2 / central domain of GASP-1. The conditions noted are these: 0.30 µM CNR2, GASP peptide 250 µM, control peptide up to 250 µM. The protocol: (§3) The human ADRB2 and CNR2 receptors were produced using the P. pastoris expression system as previously described, [16]. After methanol-induced receptor expression, cells were washed with PBS pH 7.0 and resuspended in ice-cold buffer A (50 mM Tris-HCl pH 7.4, 500 mM NaCl, 10% glycerol, 5 mM EDTA, 1 mM PMSF, 2 mM DDT). Cells were then lysed with two cycles of 20 s shaking and 20 s cooling on ice using 0.5 mm glass beads in a FastPrep 24 device. Unbroken cells and cell debris were removed by centrifugation (3000 g, 5 min, 4°C) and the membrane fraction from the supernatant was pelleted by ultracentrifugation (100,000 g, 45 min, 4°C). Membranes were resuspended in buffer B (50 mM Tris-HCl pH 7.4, 500 mM NaCl, 10% glycerol, 1 mM PMSF, 2 mM DTT) using a Dounce homogenizer, and then successively washed with urea (buffer B with 4 M urea) and NaOH (buffer B with 10 mM NaOH), and ultracentrifuged (100,000 g, 45 min, 4°C). Finally membranes were resuspended in buffer B and quantified with the bicinchoninic acid (BCA) method (Pierce). […]
(§4) The binding curves were double referenced by (i) subtraction of the signal from the GST captured flow cell from the signal of the flow cell with captured central domain of GASP-1 and (ii) subtraction of the appropriate blank injection from the receptor injections with or without peptide. […] Endpoint responses were read 20 s after injection end. […]

Experiment [5] has as its target T2, binding of full-length ADRB2 to the central domain of GASP-1 (Homo sapiens, UniProt P07550).
T2 construct: Both ADRB2 and CNR2 full-length receptors were produced in P. pastoris and purified as previously described; implied only by the HisTrap purification; made in house; host or cells: ADRB2: Pichia pastoris; GST-GASP-1(380-1073): E. coli BL21
The experiment in a line: SPR competition, ADRB2 / central domain of GASP-1. The conditions noted are these: 1.1 µM ADRB2, GASP peptide 250 µM, control peptide up to 250 µM. The protocol: as §3, §4

“Also recorded” adds a separate entry of the source.

As for “AVEWIQEVFWEKRKPEEFGIERAS [scrambled peptide, scrambled version of GASP peptide]”, the “effect on the interaction between GASP-2 and ADRB1 C-tail” value is recorded as “did not” in experiment [1] (150 µM peptide) and “did not affect this interaction; also recorded: no significant effect” in experiment [1] (dose-effect experiment, peptide 1 to 250 µM (scrambled: highest dose)). Moreover, in experiment [2], the “effect on the interaction between GASP-7 and ADRB1 C-tail” value is given as “did not”. The “effect on the interaction between GASP-1 and ADRB1 C-tail” value in experiment [3] is listed as “did not”.

For the sequence “RVKQEPRFEEEVIIGAAAAAEKEA [control peptide, control peptide where the conserved SWFW motif was changed to AAAA]”, the “effect on binding of CNR2 to the central domain of GASP-1” value in experiment [4] is given as “only had a minor effect on the interaction”. Further, the “effect on binding of ADRB2 to the central domain of GASP-1” value in experiment [5] was “only had a minor effect on the interaction”.
